≈ marks a conversion by molar mass, not a printed value.
Columns and labels:
Experiment in all cases: in vitro antibacterial evaluation, MIC by broth dilution
Type in all cases: cell-based
[1] = system: Enterococcus sp.; conditions: broth dilution, 18 hours at 35° C.
Method in brief: (§1)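 Broth dilution per NCCLS standard M7-A2 in Muller-Hinton II […], with an inoculum of 5×10^5 CFU/mL and antibiotic spanning 64-0.06 μg/mL. The MIC is the lowest concentration that inhibits growth of the organism.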

[2] = system: Escherichia coli
Method in brief: as §1

[3] = system: Staphylococcus sp.; conditions: broth dilution, 18 hours at 35° C.; for MIC Staphylococcus aureus (GC 1131): strain GC 1131
Method in brief: as §1

[4] = system: Streptococcus sp.; conditions: broth dilution, 18 hours at 35° C.
Method in brief: as §1

MIC Enterococcus avium (GC 4558) ([1]; Enterococcus avium (GC 4558)): 8 µg/mL (≈ 5.54 µM)
MIC Enterococcus faecalis (ATCC 29212) ([1]; Enterococcus faecalis (ATCC 29212)): 8 µg/mL (≈ 5.54 µM)
MIC Enterococcus faecalis (GC 2242) ([1]; Enterococcus faecalis (GC 2242)): 4 µg/mL (≈ 2.77 µM)
MIC Enterococcus faecalis (GC 2691) ([1]; Enterococcus faecalis (GC 2691)): 4 µg/mL (≈ 2.77 µM)
MIC Enterococcus faecalis (GC 3059) ([1]; Enterococcus faecalis (GC 3059)): 8 µg/mL (≈ 5.54 µM)
MIC Enterococcus faecalis (GC 4552) ([1]; Enterococcus faecalis (GC 4552)): 8 µg/mL (≈ 5.54 µM)
MIC Enterococcus faecalis (GC 4553) ([1]; Enterococcus faecalis (GC 4553)): 8 µg/mL (≈ 5.54 µM)
MIC Enterococcus faecalis (GC 4554) ([1]; Enterococcus faecalis (GC 4554)): 8 µg/mL (≈ 5.54 µM)
MIC Enterococcus faecalis (GC 6189) ([1]; Enterococcus faecalis (GC 6189)): 8 µg/mL (≈ 5.54 µM)
MIC Enterococcus faecium (GC 2243) ([1]; Enterococcus faecium (GC 2243)): 8 µg/mL (≈ 5.54 µM)
MIC Enterococcus faecium (GC 4556) ([1]; Enterococcus faecium (GC 4556)): 8 µg/mL (≈ 5.54 µM)
MIC Enterococcus faecium (GC 4557) ([1]; Enterococcus faecium (GC 4557)): 4 µg/mL (≈ 2.77 µM)
MIC Enterococcus faecalis (ATCC 29212) ([1]; strain ATCC 29212): 8 µg/mL (≈ 5.54 µM)
MIC Enterococcus faecalis (GC 2242) ([1]; strain GC 2242): 4 µg/mL (≈ 2.77 µM)
MIC Enterococcus faecium (GC 2243) ([1]; strain GC 2243): 8 µg/mL (≈ 5.54 µM)
MIC Enterococcus faecalis (GC 2691) ([1]; strain GC 2691): 4 µg/mL (≈ 2.77 µM)
MIC Enterococcus faecalis (GC 3059) ([1]; strain GC 3059): 8 µg/mL (≈ 5.54 µM)
MIC Enterococcus faecalis (GC 4552) ([1]; strain GC 4552): 8 µg/mL (≈ 5.54 µM)
MIC Enterococcus faecalis (GC 4553) ([1]; strain GC 4553): 8 µg/mL (≈ 5.54 µM)
MIC Enterococcus faecalis (GC 4554) ([1]; strain GC 4554): 8 µg/mL (≈ 5.54 µM)
MIC Enterococcus faecium (GC 4556) ([1]; strain GC 4556): 8 µg/mL (≈ 5.54 µM)
MIC Enterococcus faecium (GC 4557) ([1]; strain GC 4557): 4 µg/mL (≈ 2.77 µM)
MIC Enterococcus avium (GC 4558) ([1]; strain GC 4558): 8 µg/mL (≈ 5.54 µM)
MIC Enterococcus faecalis (GC 6189) ([1]; strain GC 6189): 8 µg/mL (≈ 5.54 µM)
MIC Escherichia coli (ATCC 25922) ([2]; strain ATCC 25922, 18 hours at 35° C.): >64 µg/mL
MIC Escherichia coli (GC 4559) ([2]; strain GC 4559, 18 hours at 35° C.): 32 µg/mL (≈ 22.2 µM)
MIC Escherichia coli (GC 4560) ([2]; strain GC 4560, 18 hours at 35° C.): 1 µg/mL (≈ 0.693 µM)
MIC Staphylococcus aureus (GC 1131) ([3]; inoculum 5×10^5 CFU/mL): 4 µg/mL (≈ 2.77 µM)
MIC Staphylococcus aureus (ATCC 29213) ([3]; strain ATCC 29213): 2 µg/mL (≈ 1.39 µM)
MIC Staphylococcus aureus (GC 1131) [3]: 4 µg/mL (≈ 2.77 µM)
MIC Staphylococcus aureus (GC 3051) ([3]; strain GC 3051): 2 µg/mL (≈ 1.39 µM)
MIC Staphylococcus aureus (GC 3053) ([3]; strain GC 3053): 8 µg/mL (≈ 5.54 µM)
MIC Staphylococcus aureus (GC 4541) ([3]; strain GC 4541): 2 µg/mL (≈ 1.39 µM)
MIC Staphylococcus aureus (GC 4542) ([3]; strain GC 4542): 2 µg/mL (≈ 1.39 µM)
MIC Staphylococcus aureus-SMITH (GC 4543) ([3]; strain GC 4543): 2 µg/mL (≈ 1.39 µM)
MIC Staphylococcus aureus (GC 4544) ([3]; strain GC 4544): 2 µg/mL (≈ 1.39 µM)
MIC Staphylococcus aureus (GC 4545) ([3]; strain GC 4545): 2 µg/mL (≈ 1.39 µM)
MIC Coagulase Negative Staphylococcus (GC 4547) ([3]; strain GC 4547): 2 µg/mL (≈ 1.39 µM)
MIC Coagulase Negative Staphylococcus (GC 4548) ([3]; strain GC 4548): 1 µg/mL (≈ 0.693 µM)
MIC Coagulase Negative Staphylococcus (GC 4549) ([3]; strain GC 4549): 1 µg/mL (≈ 0.693 µM)
MIC Coagulase Negative Staphylococcus (GC 4551) ([3]; strain GC 4551): 2 µg/mL (≈ 1.39 µM)
MIC Coagulase Negative Staphylococcus (GC 6257) ([3]; strain GC 6257): 1 µg/mL (≈ 0.693 µM)
MIC Staphylococcus aureus-SMITH (GC 4543) ([3]; strain SMITH GC 4543): 2 µg/mL (≈ 1.39 µM)
MIC Streptococcus agalactiae (GC 4564) ([4]; Streptococcus agalactiae (GC 4564)): 1 µg/mL (≈ 0.693 µM)
MIC Streptococcus pneumoniae (ATCC 6301) ([4]; Streptococcus pneumoniae (ATCC 6301)): 0.25 µg/mL (≈ 0.173 µM)
MIC Streptococcus pneumoniae (GC 1894) ([4]; Streptococcus pneumoniae (GC 1894)): 0.12 µg/mL (≈ 0.0831 µM)
MIC Streptococcus pneumoniae (GC 4565) ([4]; Streptococcus pneumoniae (GC 4565)): 0.25 µg/mL (≈ 0.173 µM)
MIC Streptococcus pyogenes (GC 4563) ([4]; Streptococcus pyogenes (GC 4563)): 0.5 µg/mL (≈ 0.346 µM)
MIC Streptococcus pneumoniae (ATCC 6301) ([4]; strain ATCC 6301): 0.25 µg/mL (≈ 0.173 µM)
MIC Streptococcus pneumoniae (GC 1894) ([4]; strain GC 1894): 0.12 µg/mL (≈ 0.0831 µM)
MIC Streptococcus pyogenes (GC 4563) ([4]; strain GC 4563): 0.5 µg/mL (≈ 0.346 µM)
MIC Streptococcus agalactiae (GC 4564) ([4]; strain GC 4564): 1 µg/mL (≈ 0.693 µM)
MIC Streptococcus pneumoniae (GC 4565) ([4]; strain GC 4565): 0.25 µg/mL (≈ 0.173 µM)
Compound: COc1cc(OC)cc(C2OCC3OC(OC4C(CO)OC(Oc5ccc(CC6NC(=O)C(C(C)c7ccccc7)NC(=O)CNC(=O)C(CO)NC(=O)C(C(O)C7CNC(=N)N7C7OC(CO)C(O)C(O)C7O)NC(=O)C(C(O)C7CNC(=N)N7)NC6=O)cc5)C(O)C4O)C(O)C(O)C3O2)c1 (stereo not drawn) [Example 150]
MIC Staphylococcus haemolyticus (GC 4546) ([3]; strain GC 4546): 1 µg/mL (≈ 0.693 µM)

From patent publication US6914045B2, “Glycopeptide antibiotics” (Wyeth Holdings Corporation, priority 2001, dated 2005)
